Measured values as given in US20020111274A1, “1-alkyl-3-[1-(substituted phenyl) benzotriazol-6-yl] uracils” (BASF Aktiengesellschaft, priority 2000, published 2002).

Columns and labels:
ABUTH Velvetleaf [1] = assay: Postemergence herbicidal evaluation, ABUTH; format: in vivo, Abutilon theophrasti, Medic.; details: postemergence spray, rated about two-three weeks after treatment
Outline: (§1)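 Ratings from greenhouse plants scored about two to three weeks after a foliar spray; data from multiple tests averaged. Seedlings about two weeks old received roughly 0.006–0.400 kg/ha active compound in 80/20 acetone/water with 1.0% methylated seed oil.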

AMBEL Ragweed, Common [2] = assay: Postemergence herbicidal evaluation, AMBEL; format: in vivo, Ambrosia artemisifolia, L.; details: postemergence spray, rated about two-three weeks after treatment
Outline: as §1

CASOB Sicklepod [3] = assay: Postemergence herbicidal evaluation, CASOB; format: in vivo, Cassia obtusifolia, L.; details: postemergence spray, rated about two-three weeks after treatment
Outline: as §1

[4] = system: CHEAL Lambsquarters, Common; assay: Postemergence herbicidal evaluation, CHEAL; format: in vivo, Chenopodium album, L.; details: postemergence spray, rated about two-three weeks after treatment
Outline: as §1

ECHOG Barnyardgrass [5] = assay: Postemergence herbicidal evaluation, ECHOG; format: in vivo, Echinochloa crus-galli, (L.) Beau; details: postemergence spray, rated about two-three weeks after treatment
Outline: as §1

GALAP Galium [6] = assay: Postemergence herbicidal evaluation, GALAP; format: in vivo, Galium aparine; details: postemergence spray, rated about two-three weeks after treatment
Outline: as §1

[7] = system: IPOHE Morningglory, Ivyleaf; assay: Postemergence herbicidal evaluation, IPOHE; format: in vivo, Ipomoea hederacea, (L.) Jacq.; details: postemergence spray, rated about two-three weeks after treatment
Outline: as §1

SETVI Foxtail, Green [8] = assay: Postemergence herbicidal evaluation, SETVI; format: in vivo, Setaria viridis, (L.) Beau; details: postemergence spray, rated about two-three weeks after treatment
Outline: as §1

GLXMAW Soybean, Williams [9] = assay: Postemergence herbicidal evaluation, GLXMAW; format: in vivo, Glycine max, (L.) Merr. cv Williams; details: postemergence spray, rated about two-three weeks after treatment
Outline: as §1

[10] = system: TRZAWR Wheat, Winter, cv Riband; assay: Postemergence herbicidal evaluation, TRZAWR; format: in vivo, Triticum aestivum; details: postemergence spray, rated about two-three weeks after treatment
Outline: as §1

ORYSAT Rice, Tebonnet [11] = assay: Postemergence herbicidal evaluation, ORYSAT; format: in vivo, Oryza sativa, (L.); details: postemergence spray, rated about two-three weeks after treatment
Outline: as §1

ZEAMX Corn, Field [12] = assay: Postemergence herbicidal evaluation, ZEAMX; format: in vivo, Zea mays, L. (Sammel-Bezeichnung); details: postemergence spray, rated about two-three weeks after treatment
Outline: as §1

ABUTH Velvetleaf [13] = assay: Preemergence herbicidal evaluation, ABUTH; format: in vivo, Abutilon theophrasti, Medic.; details: preemergence
Outline: (§2)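 Visual ratings were taken four to five weeks after application. Before that, cups sown with seed in potting soil received a spray of compound dissolved in aqueous acetone, equivalent to about 0.013 to 0.800 kg/ha, and stood on greenhouse benches under conventional care.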

AMBEL Ragweed, Common [14] = assay: Preemergence herbicidal evaluation, AMBEL; format: in vivo, Ambrosia artemisifolia, L.; details: preemergence
Outline: as §2

CASOB Sicklepod [15] = assay: Preemergence herbicidal evaluation, CASOB; format: in vivo, Cassia obtusifolia, L.; details: preemergence
Outline: as §2

[16] = system: CHEAL Lambsquarters, Common; assay: Preemergence herbicidal evaluation, CHEAL; format: in vivo, Chenopodium album, L.; details: preemergence
Outline: as §2

ECHOG Barnyardgrass [17] = assay: Preemergence herbicidal evaluation, ECHOG; format: in vivo, Echinochloa crus-galli, (L.) Beau; details: preemergence
Outline: as §2

GALAP Galium [18] = assay: Preemergence herbicidal evaluation, GALAP; format: in vivo, Galium aparine; details: preemergence
Outline: as §2

[19] = system: IPOHE Morningglory, Ivyleaf; assay: Preemergence herbicidal evaluation, IPOHE; format: in vivo, Ipomoea hederacea, (L.) Jacq.; details: preemergence
Outline: as §2

SETVI Foxtail, Green [20] = assay: Preemergence herbicidal evaluation, SETVI; format: in vivo, Setaria viridis, (L.) Beau; details: preemergence
Outline: as §2

GLXMAW Soybean, Williams [21] = assay: Preemergence herbicidal evaluation, GLXMAW; format: in vivo, Glycine max, (L.) Merr. cv Williams; details: preemergence
Outline: as §2

[22] = system: TRZAWR Wheat, Winter, cv Riband; assay: Preemergence herbicidal evaluation, TRZAWR; format: in vivo, Triticum aestivum; details: preemergence
Outline: as §2

ORYSAT Rice, Tebonnet [23] = assay: Preemergence herbicidal evaluation, ORYSAT; format: in vivo, Oryza sativa, (L.); details: preemergence
Outline: as §2

ZEAMX Corn, Field [24] = assay: Preemergence herbicidal evaluation, ZEAMX; format: in vivo, Zea mays, L. (Sammel-Bezeichnung); details: preemergence
Outline: as §2

Compound: COC(=O)COc1ccc(C)cc1-n1nnc2cc(F)c(-n3c(=O)cc(C(F)(F)F)n(C)c3=O)cc21 [Example 34]
- Postemergence herbicidal rating ABUTH (ABUTH Velvetleaf [1]; 0.008 kg/ha): 9.0
- Postemergence herbicidal rating ABUTH (ABUTH Velvetleaf [1]; 0.016 kg/ha): 9.0
- Postemergence herbicidal rating ABUTH (ABUTH Velvetleaf [1]; 0.032 kg/ha): 9.0
- Postemergence herbicidal rating ABUTH (ABUTH Velvetleaf [1]; 0.062 kg/ha): 9.0
- Postemergence herbicidal rating AMBEL (AMBEL Ragweed, Common [2]; 0.008 kg/ha): 0.0
- Postemergence herbicidal rating AMBEL (AMBEL Ragweed, Common [2]; 0.016 kg/ha): 3.0
- Postemergence herbicidal rating AMBEL (AMBEL Ragweed, Common [2]; 0.032 kg/ha): 9.0
- Postemergence herbicidal rating AMBEL (AMBEL Ragweed, Common [2]; 0.062 kg/ha): 9.0
- Postemergence herbicidal rating CASOB (CASOB Sicklepod [3]; 0.008 kg/ha): 0.0
- Postemergence herbicidal rating CASOB (CASOB Sicklepod [3]; 0.016 kg/ha): 0.0
- Postemergence herbicidal rating CASOB (CASOB Sicklepod [3]; 0.032 kg/ha): 1.0
- Postemergence herbicidal rating CASOB (CASOB Sicklepod [3]; 0.062 kg/ha): 5.0
- Postemergence herbicidal rating CHEAL ([4]; 0.008 kg/ha): 2.0
- Postemergence herbicidal rating CHEAL ([4]; 0.016 kg/ha): 3.0
- Postemergence herbicidal rating CHEAL ([4]; 0.032 kg/ha): 3.0
- Postemergence herbicidal rating CHEAL ([4]; 0.062 kg/ha): 9.0
- Postemergence herbicidal rating ECHCG (ECHOG Barnyardgrass [5]; 0.008 kg/ha): 7.0
- Postemergence herbicidal rating ECHCG (ECHOG Barnyardgrass [5]; 0.016 kg/ha): 9.0
- Postemergence herbicidal rating ECHCG (ECHOG Barnyardgrass [5]; 0.032 kg/ha): 9.0
- Postemergence herbicidal rating ECHCG (ECHOG Barnyardgrass [5]; 0.062 kg/ha): 9.0
- Postemergence herbicidal rating GALAP (GALAP Galium [6]; 0.008 kg/ha): 0.0
- Postemergence herbicidal rating GALAP (GALAP Galium [6]; 0.016 kg/ha): 3.0
- Postemergence herbicidal rating GALAP (GALAP Galium [6]; 0.032 kg/ha): 4.0
- Postemergence herbicidal rating GALAP (GALAP Galium [6]; 0.062 kg/ha): 4.0
- Postemergence herbicidal rating IPOHE ([7]; 0.008 kg/ha): 9.0
- Postemergence herbicidal rating IPOHE ([7]; 0.016 kg/ha): 9.0
- Postemergence herbicidal rating IPOHE ([7]; 0.032 kg/ha): 9.0
- Postemergence herbicidal rating IPOHE ([7]; 0.062 kg/ha): 9.0
- Postemergence herbicidal rating SETVI (SETVI Foxtail, Green [8]; 0.008 kg/ha): 9.0
- Postemergence herbicidal rating SETVI (SETVI Foxtail, Green [8]; 0.016 kg/ha): 9.0
- Postemergence herbicidal rating SETVI (SETVI Foxtail, Green [8]; 0.032 kg/ha): 9.0
- Postemergence herbicidal rating SETVI (SETVI Foxtail, Green [8]; 0.062 kg/ha): 9.0
- Postemergence herbicidal rating GLXMAW (GLXMAW Soybean, Williams [9]; 0.008 kg/ha): 5.0
- Postemergence herbicidal rating GLXMAW (GLXMAW Soybean, Williams [9]; 0.016 kg/ha): 6.5
- Postemergence herbicidal rating GLXMAW (GLXMAW Soybean, Williams [9]; 0.032 kg/ha): 7.0
- Postemergence herbicidal rating GLXMAW (GLXMAW Soybean, Williams [9]; 0.062 kg/ha): 7.0
- Postemergence herbicidal rating TRZAWR ([10]; 0.008 kg/ha): 5.0
- Postemergence herbicidal rating TRZAWR ([10]; 0.016 kg/ha): 5.0
- Postemergence herbicidal rating TRZAWR ([10]; 0.032 kg/ha): 7.0
- Postemergence herbicidal rating TRZAWR ([10]; 0.062 kg/ha): 8.0
- Postemergence herbicidal rating ORYSAT (ORYSAT Rice, Tebonnet [11]; 0.008 kg/ha): 3.0
- Postemergence herbicidal rating ORYSAT (ORYSAT Rice, Tebonnet [11]; 0.016 kg/ha): 4.0
- Postemergence herbicidal rating ORYSAT (ORYSAT Rice, Tebonnet [11]; 0.032 kg/ha): 6.5
- Postemergence herbicidal rating ORYSAT (ORYSAT Rice, Tebonnet [11]; 0.062 kg/ha): 7.5
- Postemergence herbicidal rating ZEAMX (ZEAMX Corn, Field [12]; 0.008 kg/ha): 7.0
- Postemergence herbicidal rating ZEAMX (ZEAMX Corn, Field [12]; 0.016 kg/ha): 7.5
- Postemergence herbicidal rating ZEAMX (ZEAMX Corn, Field [12]; 0.032 kg/ha): 8.5
- Postemergence herbicidal rating ZEAMX (ZEAMX Corn, Field [12]; 0.062 kg/ha): 9.0
- ABUTH herbicidal rating (ABUTH Velvetleaf [13]; rate 0.016 kg/ha): 9.0
- ABUTH herbicidal rating (ABUTH Velvetleaf [13]; rate 0.032 kg/ha): 9.0
- ABUTH herbicidal rating (ABUTH Velvetleaf [13]; rate 0.062 kg/ha): 9.0
- ABUTH herbicidal rating (ABUTH Velvetleaf [13]; rate 0.125 kg/ha): 9.0
- AMBEL herbicidal rating (AMBEL Ragweed, Common [14]; rate 0.016 kg/ha): 1.0
- AMBEL herbicidal rating (AMBEL Ragweed, Common [14]; rate 0.032 kg/ha): 5.0
- AMBEL herbicidal rating (AMBEL Ragweed, Common [14]; rate 0.062 kg/ha): 6.0
- AMBEL herbicidal rating (AMBEL Ragweed, Common [14]; rate 0.125 kg/ha): 8.0
- CASOB herbicidal rating (CASOB Sicklepod [15]; rate 0.032 kg/ha): 2.0
- CASOB herbicidal rating (CASOB Sicklepod [15]; rate 0.062 kg/ha): 2.5
- CASOB herbicidal rating (CASOB Sicklepod [15]; rate 0.125 kg/ha): 6.0
- CHEAL herbicidal rating ([16]; rate 0.016 kg/ha): 9.0
- CHEAL herbicidal rating ([16]; rate 0.032 kg/ha): 9.0
- CHEAL herbicidal rating ([16]; rate 0.062 kg/ha): 9.0
- CHEAL herbicidal rating ([16]; rate 0.125 kg/ha): 9.0
- ECHCG herbicidal rating (ECHOG Barnyardgrass [17]; rate 0.016 kg/ha): 4.0
- ECHCG herbicidal rating (ECHOG Barnyardgrass [17]; rate 0.032 kg/ha): 2.0
- ECHCG herbicidal rating (ECHOG Barnyardgrass [17]; rate 0.062 kg/ha): 5.0
- ECHCG herbicidal rating (ECHOG Barnyardgrass [17]; rate 0.125 kg/ha): 7.5
- GALAP herbicidal rating (GALAP Galium [18]; rate 0.016 kg/ha): 0.0
- GALAP herbicidal rating (GALAP Galium [18]; rate 0.032 kg/ha): 0.0
- GALAP herbicidal rating (GALAP Galium [18]; rate 0.062 kg/ha): 0.0
- GALAP herbicidal rating (GALAP Galium [18]; rate 0.125 kg/ha): 7.0
- IPOHE herbicidal rating ([19]; rate 0.032 kg/ha): 9.0
- IPOHE herbicidal rating ([19]; rate 0.062 kg/ha): 5.0
- IPOHE herbicidal rating ([19]; rate 0.125 kg/ha): 9.0
- SETVI herbicidal rating (SETVI Foxtail, Green [20]; rate 0.016 kg/ha): 7.0
- SETVI herbicidal rating (SETVI Foxtail, Green [20]; rate 0.032 kg/ha): 6.0
- SETVI herbicidal rating (SETVI Foxtail, Green [20]; rate 0.062 kg/ha): 9.0
- SETVI herbicidal rating (SETVI Foxtail, Green [20]; rate 0.125 kg/ha): 9.0
- GLXMAW herbicidal rating (GLXMAW Soybean, Williams [21]; rate 0.016 kg/ha): 1.0
- GLXMAW herbicidal rating (GLXMAW Soybean, Williams [21]; rate 0.032 kg/ha): 1.0
- GLXMAW herbicidal rating (GLXMAW Soybean, Williams [21]; rate 0.062 kg/ha): 1.5
- GLXMAW herbicidal rating (GLXMAW Soybean, Williams [21]; rate 0.125 kg/ha): 2.0
- TRZAWR herbicidal rating ([22]; rate 0.016 kg/ha): 1.0
- TRZAWR herbicidal rating ([22]; rate 0.032 kg/ha): 1.0
- TRZAWR herbicidal rating ([22]; rate 0.062 kg/ha): 1.0
- TRZAWR herbicidal rating ([22]; rate 0.125 kg/ha): 3.0
- ORYSAT herbicidal rating (ORYSAT Rice, Tebonnet [23]; rate 0.016 kg/ha): 1.0
- ORYSAT herbicidal rating (ORYSAT Rice, Tebonnet [23]; rate 0.032 kg/ha): 2.5
- ORYSAT herbicidal rating (ORYSAT Rice, Tebonnet [23]; rate 0.062 kg/ha): 3.0
- ORYSAT herbicidal rating (ORYSAT Rice, Tebonnet [23]; rate 0.125 kg/ha): 5.0
- ZEAMX herbicidal rating (ZEAMX Corn, Field [24]; rate 0.016 kg/ha): 0.0
- ZEAMX herbicidal rating (ZEAMX Corn, Field [24]; rate 0.032 kg/ha): 0.5
- ZEAMX herbicidal rating (ZEAMX Corn, Field [24]; rate 0.062 kg/ha): 3.5
- ZEAMX herbicidal rating (ZEAMX Corn, Field [24]; rate 0.125 kg/ha): 4.0
